Here are results for three compounds from the NIST ThermoML archive (doi:10.1016/j.jct.2017.08.006).

± gives the expanded uncertainty stated by the source.

Data set [1] in a line: refractive index (Na D-line) (dimensionless). Particulars: 101.33 kPa, Liquid, Standard Abbe refractometry.
For data set [2] the following is noted: Liquid; for mass density: 293.15 K, 101.33 kPa, Pycnometric method.
Data set [3] can be described thus: Boiling temperature at pressure P. Particulars: Liquid, Ebulliometric method (Recirculating still).

In the case of `COCOCC(C)C` [1-(methoxymethoxy)-2-methylpropane], the values for the refractive index in data set [1] (293.15 K) and in data set [1] (298.15 K) were 1.385 ± 0.0007 and 1.3827 ± 0.0007, respectively. The mass density in data set [2] worked out at 832.5 ± 1 kg/m3. Besides, the “Boiling temperature at pressure P” value in data set [3] (5.01 kPa) turned out to be 33.5 ± 0.18 °C; in data set [3] (9.98 kPa), 47 ± 0.16 °C; in data set [3] (14.69 kPa), 55.23 ± 0.13 °C; in data set [3] (19.75 kPa) it was 62.17 ± 0.12 °C; in data set [3] (26.67 kPa), 69.60 ± 0.11 °C; in data set [3] (40.02 kPa), 80.57 ± 0.11 °C. The “Boiling temperature at pressure P” value in data set [3] (53.72 kPa) worked out at 89.19 ± 0.11 °C; in data set [3] (65.01 kPa), 95.2 ± 0.1 °C; in data set [3] (79.21 kPa), 101.51 ± 0.1 °C; in data set [3] (90 kPa), 105.86 ± 0.1 °C; in data set [3] (101.33 kPa), 109.98 ± 0.1 °C; in data set [3] (116.34 kPa), 115.03 ± 0.1 °C. Also, the “Boiling temperature at pressure P” value came out at 116.21 ± 0.1 °C in data set [3] (120 kPa), 117.72 ± 0.1 °C in data set [3] (125.01 kPa) and 119.27 ± 0.1 °C in data set [3] (130 kPa).
Regarding `CCCCO` [butan-1-ol], the refractive index in data set [1] (298.15 K) was 1.3971 ± 0.0007. For the same compound, the mass density in data set [2] came out at 809.5 ± 1 kg/m3.
On to `CC(C)CO` [2-methyl-1-propanol], for which, in data set [1] (298.15 K), the refractive index is 1.3939 ± 0.0007. Besides, in data set [2], the mass density is 801.8 ± 1 kg/m3. Further, the “vapor or sublimation pressure” value in data set [2] (381.1 K, Ebulliometric method (Recirculating still)) amounted to 101.33 ± 0.51 kPa.
